In the assay the target is T1, JAK3 (Homo sapiens, UniProt P52333).
T1 construct: purchased Invitrogen
T1 sequence (P52333 1-1124): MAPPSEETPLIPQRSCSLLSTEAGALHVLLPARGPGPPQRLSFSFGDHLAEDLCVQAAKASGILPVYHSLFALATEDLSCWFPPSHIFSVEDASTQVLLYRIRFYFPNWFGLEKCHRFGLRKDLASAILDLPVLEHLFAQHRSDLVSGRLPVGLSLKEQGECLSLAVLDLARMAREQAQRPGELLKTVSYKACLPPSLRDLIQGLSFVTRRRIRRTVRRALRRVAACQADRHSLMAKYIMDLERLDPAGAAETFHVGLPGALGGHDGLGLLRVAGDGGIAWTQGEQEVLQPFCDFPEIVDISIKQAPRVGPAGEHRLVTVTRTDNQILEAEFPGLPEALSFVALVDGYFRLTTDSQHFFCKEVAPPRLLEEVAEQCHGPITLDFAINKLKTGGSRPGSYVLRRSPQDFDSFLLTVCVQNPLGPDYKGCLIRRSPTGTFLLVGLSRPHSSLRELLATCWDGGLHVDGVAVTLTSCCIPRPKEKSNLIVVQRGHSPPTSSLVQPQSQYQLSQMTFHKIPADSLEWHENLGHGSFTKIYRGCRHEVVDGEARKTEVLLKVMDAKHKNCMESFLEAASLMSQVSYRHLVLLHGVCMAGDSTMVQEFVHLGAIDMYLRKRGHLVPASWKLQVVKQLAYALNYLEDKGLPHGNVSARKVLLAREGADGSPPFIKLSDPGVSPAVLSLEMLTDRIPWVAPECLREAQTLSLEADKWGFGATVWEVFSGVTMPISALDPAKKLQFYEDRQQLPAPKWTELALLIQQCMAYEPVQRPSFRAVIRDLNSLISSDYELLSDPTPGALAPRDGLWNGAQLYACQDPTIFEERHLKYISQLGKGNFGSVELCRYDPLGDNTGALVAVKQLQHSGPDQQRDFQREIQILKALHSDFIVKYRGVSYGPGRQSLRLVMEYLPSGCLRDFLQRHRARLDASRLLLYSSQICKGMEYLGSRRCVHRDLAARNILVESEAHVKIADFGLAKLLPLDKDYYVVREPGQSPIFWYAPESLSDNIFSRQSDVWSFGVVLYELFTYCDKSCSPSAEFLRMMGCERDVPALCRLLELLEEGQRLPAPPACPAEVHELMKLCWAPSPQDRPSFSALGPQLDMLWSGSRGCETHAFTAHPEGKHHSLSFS
Nature of the assay: JAK LanthaScreen Kinase Assay (TR-FRET), JAK3 in vitro enzyme assay. The class given is biochemical. The settings on record: ATP 20.0 μM; n=6. An excerpt:
JAK1, JAK2 and JAK3 In Vitro Enzyme Assays
The JAK LanthaScreen™ Kinase Assay (Invitrogen) is used to determine the ability of test compounds to inhibit JAK1, JAK2 and JAK3 kinase activity. These are TR-FRET assay formats that use long-lifetime terbium labeled antibody as the donor species and GFP-STAT1 as the acceptor species. Use the TR-FRET ratio to monitor JAK kinase activity where an increase in phosphorylation of the GFP-STAT1 results in an increase in the TR-FRET ratio. Perform the kinase reaction using a 12.5 μl reaction volume in shallow black 384-well Proxiplate. Add reagents to obtain final reaction conditions of […] HEPES pH, 1.76 mM Triton X-100, ATP (20.0 μM for JAK1 and JAK3 or 5 μM for JAK2) enzyme assays, 10.0 mM MgCl2, 1 mM EGTA and 0.01% Brij-35, 0.05 mM GFP-STAT1, 14 nM JAK1 enzyme for JAK1, 1.0 nM for JAK2 or 2.5 nM for JAK3 enzyme assays, and 4% DMSO and serial dilutions of test compound (diluted 1:3 from 20,000 to 1 nM). Following ATP/GFP-STAT1 addition, centrifuge the assay plates for 1 minute at 1000 revolutions per minute (RPM). Allow the plates to incubate at RT for 60 minutes and then add 12.5 μl of a stopping buffer containing 20 mM EDTA, 2 nM Terbium-anti-phosphorylated Signal Transducers and Activators of Transcription [phosphorylation Tyrosine 701 amino acid] […]
On the technique in general: In TR-FRET formats the signal depends on donor and acceptor labels being close together.

As usually defined, the IC50 is the midpoint of a concentration-inhibition curve. The compound `Cc1cc(Nc2cc(O[C@H]3CC[C@@H](NC[C@@H](O)C(F)(F)F)CC3)cc3c2ncn3C)nn1C` [Example 1, (2R)-3-{[cis-4-({4-[(1,5-Dimethyl-1H-pyrazol-3-yl)amino]-1-methyl-1H-benzimidazol-6-yl}oxy)cyclohexyl]amino}-1,1,1-trifluoropropan-2-ol] yielded an IC50 of 1910 ± 786 nM.
